These compounds were tested against T1, human CaSR (Homo sapiens, UniProt P41180) (assay: Functional whole cell assay (modulation of human CaSR), IP1 accumulation in CHO-K1 cells). Details: CHO-K1 cells stably expressing human CaSR, final Ca2+ 1.9 mM, IP1 readout; concentration producing 50% of maximum agonistic response.
T1 sequence (P41180 20-1078): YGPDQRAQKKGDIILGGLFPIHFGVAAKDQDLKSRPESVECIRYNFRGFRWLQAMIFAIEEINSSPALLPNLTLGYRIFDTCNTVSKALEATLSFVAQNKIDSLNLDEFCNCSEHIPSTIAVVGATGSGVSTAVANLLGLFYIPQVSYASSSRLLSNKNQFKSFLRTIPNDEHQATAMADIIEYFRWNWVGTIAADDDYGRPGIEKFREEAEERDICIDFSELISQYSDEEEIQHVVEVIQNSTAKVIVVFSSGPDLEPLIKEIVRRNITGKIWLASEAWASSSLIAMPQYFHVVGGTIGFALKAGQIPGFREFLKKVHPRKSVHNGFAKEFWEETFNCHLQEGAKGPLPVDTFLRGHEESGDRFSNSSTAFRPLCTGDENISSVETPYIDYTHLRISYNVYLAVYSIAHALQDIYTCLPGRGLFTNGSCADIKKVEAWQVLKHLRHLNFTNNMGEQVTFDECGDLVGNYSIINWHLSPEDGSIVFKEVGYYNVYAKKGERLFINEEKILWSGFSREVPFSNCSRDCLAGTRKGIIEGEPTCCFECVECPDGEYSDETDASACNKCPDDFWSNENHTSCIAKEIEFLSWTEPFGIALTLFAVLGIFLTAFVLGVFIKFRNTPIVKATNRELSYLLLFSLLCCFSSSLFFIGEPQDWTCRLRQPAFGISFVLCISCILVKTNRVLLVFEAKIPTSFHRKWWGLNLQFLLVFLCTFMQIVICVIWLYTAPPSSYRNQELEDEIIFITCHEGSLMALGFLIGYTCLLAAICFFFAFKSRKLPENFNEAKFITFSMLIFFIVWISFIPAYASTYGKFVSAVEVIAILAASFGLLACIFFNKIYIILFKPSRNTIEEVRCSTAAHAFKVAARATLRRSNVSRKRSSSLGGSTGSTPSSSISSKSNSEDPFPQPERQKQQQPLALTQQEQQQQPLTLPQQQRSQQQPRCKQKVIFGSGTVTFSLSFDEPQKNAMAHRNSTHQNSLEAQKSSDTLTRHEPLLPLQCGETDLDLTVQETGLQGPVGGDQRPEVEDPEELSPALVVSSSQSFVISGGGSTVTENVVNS
Type: cell-based
Excerpt: The assay investigates a compound's functional ability to act as a biological positive modulator on the human CaSR. Activation of the receptor expressed on CHO-K1 cells is detected through the G alpha q pathway, the activation of phospholipase C and the accumulation of intracellular inositol phosphate (IP) as described earlier [Sandrine Ferry, Bruno Chatel, Robert H. Dodd, Christine Lair, Danielle Gully, Jean-Pierre Maffrand, and Martial Ruat. Effects of Divalent Cations and of a Calcimimetic on Adrenocorticotropic Hormone Release in Pituitary Tumor Cells. Biochemical and biophysical research Communications 238, 866-873 (1997)]. The human CaSR is stably expressed on a CHO-K1 cell clone, stimulated with a basal level of calcium and challenged with the tested compound. The level of IP1 is determined using the IP-One Terbium htrf kit (Cisbio, France). CHO-K1 cells not transfected with the CaSR fail to elicit an IP1 response upon calcium and/or compound stimulation.
The ORF coding for the human CaSR (genebank: NM_000388) was acquired from Invitrogen Corp, USA and subsequently cloned into the mammalian expression vector pCDA3.1.
CHO-K1 cells were transfected using Lipofectamine according to manufacturer's protocol (400.000 cells/well were seeded in a 6-well plate and transfected after 24 hours using 2 μg DNA and 5 μl lipofectamine). After another 24 hours the cells were detached, seeded and subjected to 1 mg/ml of G-418. Following 7 days growth single clones were picked, the CaSR expression evaluated using the 5C10 antibody against CaSR, the clones with the highest expression were selected and tested for functional response. The preferred clone was cultured according to standard procedures described in ATCC (American Type Culture Collection) protocols for CHO-K1 with the addition of 500 μg/ml G-418.
On the assay day, cells were thawed, harvested and resuspended to 4*10^6 cells/ml in stimulation buffer (containing: Hepes 10 mM, MgCl2 0.5 mM, KCl 4.2 mM, NaCl 146 mM, glucose 5.5 mM, LiCl 50 mM, BSA 0.5% at pH 7.4). Ten μl cell solution was pipetted into wells of a white 384-well plate (Perkin Elmer Optiplate) containing 2 μl compound diluted in assay buffer (containing: Hepes 10 mM, MgCl2 0.5 mM, KCl 4.2 mM, NaCl 146 mM, glucose 5.5 mM, LiCl 50 mM, CaCl2 11.4 mM at pH 7.4), resulting in a final Ca^2+ concentration of 1.9 mM. After compound stimulation for 1 hour at 37° C. and 15 min at room temperature, 10 ul of IP-One assay detection reagent (prepared as described by the IP-One assay kit manufacturer) was added and the plate was incubated for another 1 hour at room temperature. Finally the plate was read using a Perkin Elmer EnVision, according to the protocol supplied by the IP-One assay kit manufacturer. The FRET ratio was calculated by dividing the 665 nm emission signal with that of the 615 nm.
The molar concentration of a compound that produces 50% of the maximum agonistic response (the […] value) is calculated according to the equation “General sigmoidal curve with Hill slope, a to d” (Equation 1). This model describes a sigmoidal curve with an adjustable baseline. The equation can be used to fit curves where response is either increasing or decreasing with respect to the independent variable, X. […]
y=(a−d)/(1+(x/c)̂b)+d Equation 1 x=concentration of tested compound […]
a=min response as compound concentration approaches 0 d=max response as concentration of tested compound is increasing […]
b=Hill coefficient or curve slope

EC50, < 0.2 µM:
COc1cc([C@@H](C)N[C@H]2CC[C@@H](c3ccc(OCC(=O)N4CCNCC4)cc3)C2)ccc1F [Compound 103, 2-[4-[(1R,3S)-3-[[(1R)-1-(4-Fluoro-3-methoxy-phenyl)ethyl]-amino]-cyclopentyl]phenoxy]-1-piperazin-1-yl-ethanone]
COc1cc([C@@H](C)N[C@H]2CC[C@@H](c3ccc(OCC(=O)NCCNS(C)(=O)=O)cc3)C2)ccc1F [Compound 108, 2-[4-[(1R,3S)-3-[[(1R)-1-(4-Fluoro-3-methoxy-phenyl)ethyl]-amino]-cyclopentyl]phenoxy]-N-[2-(methanesulfonamido)ethyl]acetamide]
COc1cc([C@@H](C)N[C@H]2CC[C@@H](c3ccc(OCC(=O)NCCS(N)(=O)=O)cc3)C2)ccc1F [Compound 104, 2-[4-[(1R,3S)-3-[[(1R)-1-(4-Fluoro-3-methoxy-phenyl)ethyl]-amino]-cyclopentyl]phenoxy]-N-(2-sulfamoylethyl)acetamide]
COc1cc([C@@H](C)N[C@H]2CC[C@@H](c3ccc(OCC(=O)N4CCN(C(C)=O)CC4)cc3)C2)ccc1F [Compound 109, 1-(4-Acetylpiperazin-1-yl)-2-[4-[(1R,3S)-3-[[(1R)-1-(4-fluoro-3-methoxy-phenyl)ethyl]amino]cyclopentyl]phenoxy]ethanone]
COc1cc([C@@H](C)N[C@H]2CC[C@@H](c3ccc(OCC(=O)NCCNCCO)cc3)C2)ccc1F [Compound 106, 2-[4-[(1R,3S)-3-[[(1R)-1-(4-Fluoro-3-methoxy-phenyl)ethyl]-amino]-cyclopentyl]phenoxy]-N-[2-(2-hydroxyethylamino)ethyl]acetamide]
COc1cc([C@@H](C)N[C@H]2CC[C@@H](c3ccc(OCC(=O)N4CCN(S(N)(=O)=O)CC4)cc3)C2)ccc1F [Compound 110, 4-[2-[4-[(1R,3S)-3-[[(1R)-1-(4-Fluoro-3-methoxy-phenyl)-ethyl]-amino]cyclopentyl]phenoxy]acetyl]piperazine-1-sulfonamide]
C[C@@H](N[C@H]1CC[C@@H](c2ccc(OCC(=O)NC3CCNCC3)cc2)C1)c1cccc2ccccc12 [Compound 112, 2-[4-[(1R,3S)-3-[[(1R)-1-(1-Naphthyl)ethyl]amino]cyclopentyl]-phenoxy]-N-(4-piperidyl)acetamide]
